# Measured values from patent EP0752872B1, “NADH OXIDASE AS A TARGET IN DIAGNOSIS AND THERAPY” (Morré, D. James, priority 1994, dated 1995).
# Like-named read-outs stand apart in the source and are kept apart here.
# Key:
# [1] = test system: normal rat kidney cells; assay: Growth of normal rat kidney cells; type: cell-based
# [2] = test system: HeLa cells; assay: Growth of HeLa cells in culture; type: cell-based, human; conditions: Homo sapiens, HeLa, 72 h
# Protocol: Growth of cells. HeLa cells (ATCC CCL2), were grown in 150 cm^2 flasks in Minimal Essential Medium (Gibco), pH 7.4. at 37°C with 10% bovine calf serum (heat-inactivated), plus 50 mg/l gentamycin sulfate (Sigma). Cells were trypsinized with Sigma IX trypsin for 1 to 2 min, harvested by scraping and taken up in TD-tris buffer (140 mM NaCl, 5 mM KCl, 0.7 mM Na2HPO4 and 25 mM Tris, pH 7.4) to a final cell concentration of 0.1 g wet weight (gww) per ml.
# The number of cells initially plated was subtracted. The results were averages from duplicate experiments.
# [3] = target: T1, NADH oxidase from HeLa cell plasma membranes (Homo sapiens, UniProt Q16206); assay: Spectrophotometric NADH oxidase assay, HeLa plasma membranes; type: biochemical
# T1 sequence (Q16206 1-610): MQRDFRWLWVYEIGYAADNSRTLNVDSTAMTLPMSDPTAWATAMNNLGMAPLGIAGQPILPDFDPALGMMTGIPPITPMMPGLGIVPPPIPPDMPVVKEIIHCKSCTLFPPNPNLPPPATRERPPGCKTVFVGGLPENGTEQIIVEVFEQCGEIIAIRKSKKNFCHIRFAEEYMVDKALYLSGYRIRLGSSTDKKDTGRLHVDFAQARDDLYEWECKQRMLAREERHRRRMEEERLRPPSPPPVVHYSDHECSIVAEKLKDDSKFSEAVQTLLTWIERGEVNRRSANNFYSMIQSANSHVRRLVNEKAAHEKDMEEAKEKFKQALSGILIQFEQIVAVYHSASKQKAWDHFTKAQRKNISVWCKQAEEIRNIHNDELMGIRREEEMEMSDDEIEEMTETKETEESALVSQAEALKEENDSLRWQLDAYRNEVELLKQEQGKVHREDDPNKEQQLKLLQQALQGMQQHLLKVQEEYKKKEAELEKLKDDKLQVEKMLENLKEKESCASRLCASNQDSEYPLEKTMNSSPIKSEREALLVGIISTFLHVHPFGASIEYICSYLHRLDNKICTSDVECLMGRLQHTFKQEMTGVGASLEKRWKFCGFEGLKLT
# Protocol: Purification of plasma membranes from HeLa cells. HeLa cells were grown as suspension cultures in minimum essential medium (MEM) supplemented with horse serum, diferric transferrin and heparin. Cells were collected by centrifugation for 6 to 15 min at 1,000 to 3,000 rpm. The cell pellets were resuspended in 0.2 mM EDTA in 1 mM NaHCO3 in an approximate ratio of 1 ml per 10^8 cells and incubated on ice for 10 to 30 min to swell the cells. Homogenization was with a Polytron Homogenizer for 30 to 40 sec at 10,500 rpm using a PT-PA 3012/23 or ST-probe in 7 to 8 ml aliquots. To estimate breakage, the cells are monitored by light microscopy before and after homogenization. […]
# The homogenates were centrifuged for 10 min at 1,000 rpm (175 g) to remove unbroken cells and nuclei and the supernatant was centrifuged a second time at 1.4 x 10^6 g min (e.g. 1 h at 23,500 g) to prepare a plasma membrane enriched microsome fraction. […] The purity of the plasma membrane was determined to be > 90% by electron microscope morphometry. […]
# Spectrophometric assay of NADH oxidase. NADH oxidase activity was determined as the disappearance of NADH measured at 340 nm in a reaction mixture containing 25 mM Tris-MES buffer (pH 7.2), 1 mM KCN to inhibit the low levels of contaminating mitochondrial oxidase activity, and 150 µM NADH at 37°C with constant stirring. […]
# [4] = test system: plasma membrane NADH oxidase; assay: Spectrophotometric NADH oxidase assay, rat liver plasma membranes (normal cells); type: biochemical
# Protocol: Purification of plasma membranes from rat liver. A 5000 x g pellet from the preparation of Golgi apparatus (Morré (1971) Meth. Enzymol. 22, 130-148) was the starting material. The fluffy layer which contains the Golgi apparatus fraction was mixed, withdrawn and excluded from the plasma membrane preparations. Cold 1 mM NaHCO3 (5 ml) was added to each tube and the friable yellow-brown upper part of the pellet was resuspended with a pen-brush, leaving the reddish tightly packed bottom part of the pellet undisturbed. The resuspended material was homogenized in aliquots of 5 ml each in a 30 ml stainless steel homogenizer (Duragrind) 20 times by hand. The homogenates were combined, diluted with cold 1 mM NaHCO3 (1:1 dilution), and centrifuged at 6000 x g in a HB rotor for 15 min. The supernatant was discarded and the pellet was used for the two-phase separation (Morré & Morré (1989) BioTechniques 7:946-958).
# The two-phase system contained 6.4% (w/w) Dextran T-500 (Pharmacia), 6.4% (w/w) polyethylene glycol) 3350 (Fisher), and 5 mM potassium phosphate buffer (pH 7.2) (Morré & Morré, 1989, supra). The homogenate (1 g) was added to the two-phase system and the weight of the system was brought to 8 g with distilled water. The tubes were inverted vigorously for 40 times in the cold (4°C). The phases were separated by centrifugation at 750 rpm (150 x g) in a Sorvall HB 4 rotor for 5 min. The upper phases were carefully withdrawn with a pasteur pipette, divided in half and transferred into 40 ml plastic centrifuge tubes and diluted with cold 1 mM NaHCO3. The purified plasma membranes were collected by centrifugation at 10,000 x g in a HB rotor for 30 min. Plasma membrane pellets were resuspended in 50 mM Tris-Mes buffer (pH 7.2) and stored at -70°C. Proteins were determined using the bicinchoninic acid (BCA) assay (Smith et al. (1985) Anal. Biochem. […]: 76-85) with bovine serum albumin as standard.
# (§1) Spectrophometric assay of NADH oxidase. NADH oxidase activity was determined as the disappearance of NADH measured at 340 nm in a reaction mixture containing 25 mM Tris-MES buffer (pH 7.2), 1 mM KCN to inhibit the low levels of contaminating mitochondrial oxidase activity, and 150 µM NADH at 37°C with constant stirring. Activity was measured using a Hitachi U3210 spectrophotometer with continuous recording over two intervals of 5 min each. A millimolar extinction coefficient of 6.22 was used to determine specific activity.
# [5] = test system: circulating NADH oxidase in the serum; assay: NADH oxidase activity of human serum; type: biochemical
# Protocol: as §1
# [6] = test system: NADH oxidase activity of isolated plasma membranes of normal rat kidney cells; assay: NADH oxidase assay, plasma membranes of normal rat kidney cells
smiles,measurement,setting,value
COc1cc(CNC(=O)CCCC/C=C/C(C)C)ccc1O [capsaicin],concentration at which growth is inhibited,[1],> 10^-5 M
same,IC50,[2]; read-out: concentration at which growth was 50% inhibited,~1000 nM
same,IC50,[2]; read-out: concentration of drug able to inhibit growth by 50%,> 10000 nM
same,inhibition of NADH oxidase activity (in words),[3],nearly completely inhibited
same,effect on NADH oxidase activity (in words),[4],no effect
same,"NADH oxidase activities of human serum, Mean",[5],0.56
same,"Ratio, Mean",[5],0.97
same,concentration at which NADH oxidase activity is inhibited,[6],> 10^-5 M
